From PubChem BioAssay AID1963975 (Molecular Pharmacology Branch, DTP, NCI, 2024)

Tested on: 624824-186-R-J2-PDC multicell spheroids, viability
Assay: Anticancer human tumor 624824-186-R-J2-PDC patient-derived colon adenocarcinoma cell line growth inhibition [PI3K]
Conditions: for IC50: curve of first compound; for viability, T/C: stronger effect = lower value
Summary of the method: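 Stroma-containing spheroids: tumor line, pooled-donor HUVEC, hMSC. Treatments: targeted agents with PI3K inhibitors. Dosing: clinically relevant, half-log spacing, 10 microM ceiling without known Cmax. Read-out: cell viability.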

[1] = second compound 0.0316 µM, first compound 0.0316 µM
[2] = second compound 0.0316 µM, first compound 0.1 µM
[3] = second compound 0.0316 µM, first compound 0.316 µM
[4] = second compound 0.0316 µM, first compound 1 µM
[5] = second compound 0.1 µM, first compound 0.0316 µM
[6] = second compound 0.1 µM, first compound 0.1 µM
[7] = second compound 0.1 µM, first compound 0.316 µM
[8] = second compound 0.1 µM, first compound 1 µM
[9] = second compound 0.316 µM, first compound 0.0316 µM
[10] = second compound 0.316 µM, first compound 0.1 µM
[11] = second compound 0.316 µM, first compound 0.316 µM
[12] = second compound 0.316 µM, first compound 1 µM
[13] = second compound 1 µM, first compound 0.0316 µM
[14] = second compound 1 µM, first compound 0.1 µM
[15] = second compound 1 µM, first compound 0.316 µM
[16] = second compound 1 µM, first compound 1 µM
[17] = second compound 3.16 µM, first compound 0.0316 µM
[18] = second compound 3.16 µM, first compound 0.1 µM
[19] = second compound 3.16 µM, first compound 0.316 µM
[20] = second compound 3.16 µM, first compound 1 µM
[21] = second compound 10 µM, first compound 0.0316 µM
[22] = second compound 10 µM, first compound 0.1 µM
[23] = second compound 10 µM, first compound 0.316 µM
[24] = second compound 10 µM, first compound 1 µM
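Further: spheroids exposed to agents for 7 days before viability read.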
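Wherever viability, T/C is given: 100% = DMSO vehicle treated spheroids.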

C=CC(=O)N1CCN(c2nc(=O)n(-c3c(C)ccnc3C(C)C)c3nc(-c4c(O)cccc4F)c(F)cc23)C(C)C1 (centres undefined) + Cc1nc(NC(=O)N2CCCC2C(N)=O)sc1-c1ccnc(C(C)(C)C(F)(F)F)c1 was tested, and the IC50 (second compound 0.0316 µM) was over 10 µM, the IC50 (second compound 0.1 µM) was over 10 µM and the IC50 (second compound 0.316 µM) was over 10 µM. It also gave an IC50 (second compound 1 µM) of over 10 µM, an IC50 (second compound 3.16 µM) of over 10 µM and an IC50 (second compound 10 µM) of over 10 µM. For the same compound, the viability, T/C [1] was 98%, the viability, T/C [2] was 71.2% and the viability, T/C [3] was 101%. The viability, T/C [4] was 101%, the viability, T/C (second compound 0.0316 µM, first compound 3.16 µM) was 92.8% and the viability, T/C (second compound 0.0316 µM, first compound 10 µM) was 100%. For the same compound, the viability, T/C [5] was 91.9%, the viability, T/C [6] was 107% and the viability, T/C [7] was 105%. For the same compound, the viability, T/C [8] was 80%, the viability, T/C (second compound 0.1 µM, first compound 3.16 µM) was 93.9% and the viability, T/C (second compound 0.1 µM, first compound 10 µM) was 101%. For the same compound, the viability, T/C [9] was 112%, the viability, T/C [10] was 87.8% and the viability, T/C [11] was 91.2%. For the same compound, the viability, T/C [12] was 79.9%, the viability, T/C (second compound 0.316 µM, first compound 3.16 µM) was 90.8% and the viability, T/C (second compound 0.316 µM, first compound 10 µM) was 87%. The viability, T/C [13] was 86.2%, the viability, T/C [14] was 79.5% and the viability, T/C [15] was 70.4%. It also gave a viability, T/C [16] of 84.9%, a viability, T/C (second compound 1 µM, first compound 3.16 µM) of 85.2% and a viability, T/C (second compound 1 µM, first compound 10 µM) of 67.5%. It also gave a viability, T/C [17] of 86.8%, a viability, T/C [18] of 88.1% and a viability, T/C [19] of 92%. It also gave a viability, T/C [20] of 83%, a viability, T/C (second compound 3.16 µM, first compound 3.16 µM) of 82.6% and a viability, T/C (second compound 3.16 µM, first compound 10 µM) of 93.9%. For the same compound, the viability, T/C [21] was 79.2%, the viability, T/C [22] was 86.5% and the viability, T/C [23] was 79.5%. For the same compound, the viability, T/C [24] was 91.5%, the viability, T/C (second compound 10 µM, first compound 3.16 µM) was 84.1% and the viability, T/C (second compound 10 µM, first compound 10 µM) was 77.2%.

For CCN1CCN(Cc2ccc(Nc3ncc(F)c(-c4cc(F)c5nc(C)n(C(C)C)c5c4)n3)nc2)CC1 + Cc1nc(NC(=O)N2CCCC2C(N)=O)sc1-c1ccnc(C(C)(C)C(F)(F)F)c1, the IC50 (second compound 0.0316 µM) was over 1 µM, the IC50 (second compound 0.1 µM) was over 1 µM and the IC50 (second compound 0.316 µM) was over 1 µM. It also gave an IC50 (second compound 1 µM) of over 1 µM, an IC50 (second compound 3.16 µM) of over 1 µM and an IC50 (second compound 10 µM) of over 1 µM. The viability, T/C (second compound 0.0316 µM, first compound 0.00316 µM) was 95.9%, the viability, T/C (second compound 0.0316 µM, first compound 0.01 µM) was 92.4% and the viability, T/C [1] was 87.3%. For the same compound, the viability, T/C [2] was 72.8%, the viability, T/C [3] was 75.5% and the viability, T/C [4] was 102%. The viability, T/C (second compound 0.1 µM, first compound 0.00316 µM) was 85.8%, the viability, T/C (second compound 0.1 µM, first compound 0.01 µM) was 81.7% and the viability, T/C [5] was 67.9%. The viability, T/C [6] was 82.8%, the viability, T/C [7] was 87% and the viability, T/C [8] was 92.8%. For the same compound, the viability, T/C (second compound 0.316 µM, first compound 0.00316 µM) was 91.4%, the viability, T/C (second compound 0.316 µM, first compound 0.01 µM) was 79.2% and the viability, T/C [9] was 63.6%. It also gave a viability, T/C [10] of 76.6%, a viability, T/C [11] of 92% and a viability, T/C [12] of 88.7%. For the same compound, the viability, T/C (second compound 1 µM, first compound 0.00316 µM) was 63.2%, the viability, T/C (second compound 1 µM, first compound 0.01 µM) was 77.3% and the viability, T/C [13] was 76.5%. For the same compound, the viability, T/C [14] was 80.2%, the viability, T/C [15] was 86% and the viability, T/C [16] was 95.2%. For the same compound, the viability, T/C (second compound 3.16 µM, first compound 0.00316 µM) was 72.2%, the viability, T/C (second compound 3.16 µM, first compound 0.01 µM) was 93% and the viability, T/C [17] was 78.7%. The viability, T/C [18] was 68.6%, the viability, T/C [19] was 79.4% and the viability, T/C [20] was 82.4%. For the same compound, the viability, T/C (second compound 10 µM, first compound 0.00316 µM) was 63.8%, the viability, T/C (second compound 10 µM, first compound 0.01 µM) was 66.1% and the viability, T/C [21] was 70.7%. The viability, T/C [22] was 53%, the viability, T/C [23] was 65.2% and the viability, T/C [24] was 74.9%.
